# Results published in patent publication US6417202B1, “Pyridylpyrrole compounds useful as interleukin-and TNF antagonists” (Pfizer Inc., priority 1996, dated 2002).
row,SMILES,melting point [°C]
1,"CC(=O)c1c[nH]c(-c2ccncc2)c1C [Example 48, 3-Acetyl-4-methyl-5-(4-pyridyl)-1H-pyrrole]",210 to 211
2,"Cc1c(-c2ccncc2)[nH]c2c1C(=O)C(C)(C)CC2 [Example 82 (3,5,5-trimethyl), 4-Oxo-2-(4-pyridyl)-3,5,5-trimethyl-4,5,6,7-tetrahydro-1H-indole]",237 to 239
3,"CCc1c(-c2ccncc2)[nH]c(-c2ccncc2)c1C(C)=O [Example 28, 3-Acetyl-4-ethyl-2,5-di(4-pyridyl)-1H-pyrrole]",241 to 243
4,"CC(=O)c1c(C)[nH]c(-c2ccncc2)c1-c1ccncc1 [Example 42, 3-Acetyl-2-methyl-4,5-di(4-pyridyl)1H-pyrrole]",236 to 239
5,"Cc1c(-c2ccncc2)[nH]c(-c2ccncc2)c1C(=O)OC(C)(C)C [Example 16, 4-Methyl-3-(1,1-dimethylethoxy)carbonyl-2,5-di(4-pyridyl)-1H-pyrrole]",265 to 267
6,"CC(=O)c1c(-c2ccncc2)[nH]c(-c2ccncc2)c1-c1ccccc1 [Example 7, 3-Acetyl-4-phenyl-2,5-di(4-pyridyl)-1H-pyrrole]",208 to 210
7,"CCCCc1c(-c2ccncc2)[nH]c(-c2ccncc2)c1C(C)=O [Example 31, 3-Acetyl-4-butyl-2,5-di(4-pyridyl)-1H-pyrrole]",93 to 95
8,"CCCCOC(=O)c1c(-c2ccncc2)[nH]c(-c2ccncc2)c1C [Example 19, 3-Butoxycarbonyl-4-methyl-2,5-di(4-pyridyl)-1H-pyrrole]",182 to 186
9,"CC(=O)c1cc(-c2ccncc2)[nH]c1C [Example 43, 3-Acetyl-2-methyl-5-(4-pyridyl)-1H-pyrrole]",236 to 237
10,"CC(=O)c1c(N2C[C@@H](C)O[C@@H](C)C2)[nH]c(-c2ccncc2)c1C [Example 80, 3-Acetyl-2-(cis-2,6-dimethylmorpholin-4-yl)-4-methyl-5-(4-pyridyl)-1H-pyrrole]",95 to 100
11,"CCOC(=O)c1c(-c2ccncc2)[nH]c(-c2ccncc2)c1C [Example 11, 3-Ethoxycarbonyl-4-methyl-2,5-di(4-pyridyl)-1H-pyrrole]",206 to 208
12,"COCCOC(=O)c1c(-c2ccncc2)[nH]c(-c2ccncc2)c1C [Example 20, 3-(2-Methoxyethoxy)carbonyl-4-methyl-2,5-di(4-pyridyl)-1H-pyrrole]",174 to 177
13,"CC(=O)c1c(-c2ccnc3ccccc23)[nH]c(-c2ccnc3ccccc23)c1C [Example 8, 3-Acetyl-4-methyl-2,5-di(4-quinolyl)-1H-pyrrole]",> 260
14,"Cc1c(-c2ccncc2)[nH]c(-c2ccncc2)c1C(=O)OC(C)C [Example 15, 4-Methyl-3-(1-methylethoxy)carbonyl-2,5-di(4-pyridyl)-1H-pyrrole]",218 to 221
15,"Cc1c(-c2ccncc2)[nH]c(-c2ccncc2)c1C(=O)CC(C)C [Example 90, 4-Methyl-3-(3-methylbutanoyl)-2,5-di(4-pyridyl)-1H-pyrrole]",199 to 201
16,"Cc1c(-c2ccncc2)[nH]c2c1C(=O)CSC2 [Example 87, 3-Methyl-4-oxo-2-(4-pyridyl)-6-thia-4,5,6,7-tetrahydro-1H-indole]",209 to 210
17,"Cc1c(-c2ccncc2)[nH]c2c1C(=O)CC(C)C2 (centres unmarked) [Example 86, 3,6-Dimethyl-4-oxo-2-(4-pyridyl)-4,5,6,7-tetrahydro-1H-indole]",247 to 248
18,"Cc1c(-c2ccncc2)[nH]c(-c2ccncc2)c1CO [Example 39, 3-Hydroxymethyl-4-methyl-2,5-di(4-pyridyl)-1H-pyrrole]",258 to 261
19,"CC(=O)c1c(-c2cccc(Oc3ccc(F)cc3)c2)[nH]c(-c2ccncc2)c1C [Example 62, 3-Acetyl-2-{3-(4-fluorophenoxy)phenyl}-4-methyl-5-(4-pyridyl)-1H-pyrrole]",158 to 159
20,"COCc1c(-c2ccncc2)[nH]c(-c2ccncc2)c1C(=O)OC [Example 24, 3-Methoxycarbonyl-4-methoxymethyl-2,5-di(4-pyridyl)-1H-pyrrole]",97 to 99
21,"CCOC(=O)c1c(-c2ccncc2)[nH]c(-c2ccncc2)c1-c1ccccc1 [Example 18, 3-Ethoxycarbonyl-4-phenyl-2,5-di(4-pyridyl)-1H-pyrrole]",99 to 100
22,"CCOC(=O)c1c(-c2ccncc2)[nH]c(-c2ccncc2)c1CC [Example 10, 3-Ethoxycarbonyl-4-ethyl-2,5-di(4-pyridyl)-1H-pyrrole]",212 to 215

# Next, values leading:
row,melting point [°C],SMILES
1,231 to 232,"CC(=O)c1c(-c2cccs2)[nH]c(-c2ccncc2)c1C [Example 52, 3-Acetyl-4-methyl-5-(4-pyridyl)-2-(2-thienyl)-1H-pyrrole]"
2,97 to 100,"CC(=O)c1c(-c2ccc(C=O)cc2)[nH]c(-c2ccncc2)c1C [Example 60, 3-Acetyl-2-(4-formylphenyl)-4-methyl-5-(4-pyridyl)-1H-pyrrole]"
3,214 to 217,"CC(=O)c1c(-c2cccc([N+](=O)[O-])c2)[nH]c(-c2ccncc2)c1C [Example 64, 3-Acetyl-4-methyl-2-(3-nitrophenyl)-5-(4-pyridyl)-1H-pyrrole]"
4,187 to 188,"CC(=O)c1c([N+](=O)[O-])[nH]c(-c2ccncc2)c1C [Example 84, 3-Acetyl-4-methyl-2-nitro-5-(4-pyridyl)-1H-pyrrole]"
5,208 to 209,"CC(=O)c1c(C=O)[nH]c(-c2ccncc2)c1C [Example 88, 3Acetyl-2-formyl-4-methyl-5-(4-pyridyl)-1H-pyrrole]"
6,116 to 123,"CC(=O)c1c(-c2ccc3ccccc3c2)[nH]c(-c2ccncc2)c1C [Example 59, 3-Acetyl-4-methyl-2-(2-naphthyl)-5-(4-pyridyl)-1H-pyrrole]"
7,240 to 244,"CC(=O)c1c(-c2ccsc2)[nH]c(-c2ccncc2)c1C [Example 70, 3-Acetyl-4-methyl-5-(4-pyridyl)-2-(3-thienyl)-1H-pyrrole]"
8,193 to 195,"CC(=O)c1c(-c2cccc(N)c2)[nH]c(-c2ccncc2)c1C [Example 58, 3-Acetyl-2-(3-aminophenyl)-4-methyl-5-(4-pyridyl)-1H-pyrrole]"
9,212 to 215,"Cc1c(-c2ccncc2)[nH]c(-c2ccncc2)c1C(N)=O [Example 40, 3-Aminocarbonyl-4-methyl-2,5-di(4-pyridyl)-1H-pyrrole]"
10,208 to 209,"CC(=O)c1c(-c2ccncc2)[nH]c(-c2ccccc2)c1C [Example 47, 3-Acetyl-4-methyl-5-phenyl-2-(4-pyridyl)-1H-pyrrole]"
11,218 to 220,"CC(=O)c1c(-c2cccc3ccccc23)[nH]c(-c2ccncc2)c1C [Example 61, 3-Acetyl-4-methyl-2-(1-naphthyl)-5-(4-pyridyl)-1H-pyrrole]"
12,202 to 203,"CC(=O)c1c(-c2ccc(F)cc2)[nH]c(-c2ccncc2)c1C [Example 51, 3-Acetyl-2-(4-fluorophenyl)4-methyl-5-(4-pyridyl)-1H-pyrrole]"
13,187.5 to 189.5,"CC(=O)c1c(-c2ccc(Cl)cc2)[nH]c(-c2ccncc2)c1C [Example 68, 3-Acetyl-2-(4-chlorophenyl)-4-methyl-5-(4-pyridyl)-1H-pyrrole]"
